For four compounds, IC50 results are on record in ChEMBL document CHEMBL1142756, “Total synthesis and antiangiogenic activity of cyclopentane analogues of fumagillol” (Bioorg Med Chem Lett, 2005).

Values after ≈ are worked out from the molar mass of the structure shown.

Format in all cases: functional, cell-based
A short description of assay [1]: Inhibitory concentration against Lymphoma EC4 cells measured for endothelial cell proliferation activity. The settings on record: Homo sapiens.
Assay [2] relates to P388. Description: Inhibitory concentration against Murine leukemia P388 measured for endothelial cell proliferation activity. The settings on record: Mus musculus.
A short description of assay [3]: Inhibitory concentration against Calf pulmonary artery endothelial cells (CPAE) measured for endothelial cell proliferation activity. The settings on record: Bos taurus.

Turning to `CO[C@@H]1[C@H](OC(=O)NC(=O)CCl)C[C@]2(CO2)[C@H]1[C@]1(C)O[C@H]1CCC(C)C`, the IC50 in assay [1] is 1.1 µg/mL (≈ 2.82 µM); in assay [2], no less than 10 µg/mL; in assay [3], 0.57 µg/mL (≈ 1.46 µM).
The matching figures for `CO[C@@H]1[C@H](OC(=O)NC(=O)CCl)C[C@]2(CO2)[C@H]1[C@@]1(C)O[C@@H]1CCC(C)C`: 0.3 µg/mL (≈ 0.769 µM), no less than 10 µg/mL and 0.088 µg/mL (≈ 0.226 µM).
Regarding `CO[C@@H]1[C@H](OC(=O)/C=C/C=C/C=C/C=C/C(=O)O)CC[C@]2(CO2)[C@H]1[C@@]1(C)OC1CC=C(C)C` (single isomer, unassigned) [FUMAGILLIN], the IC50 is 0.0016 µg/mL (≈ 0.00349 µM) in assay [1], no less than 10 µg/mL in assay [2] and 0.003 µg/mL (≈ 0.00654 µM) in assay [3].
Regarding `CO[C@@H]1[C@H](OC(=O)NC(=O)CCl)CC[C@]2(CO2)[C@H]1[C@@]1(C)OC1CC=C(C)C` (single isomer, unassigned) [O-CHLOROACETYLCARBAMOYLFUMAGILLOL], the values for the IC50 in assay [1], in assay [2] and in assay [3] were 0.0038 µg/mL (≈ 0.00946 µM), no less than 10 µg/mL and 0.0002 µg/mL (≈ 0.000498 µM), respectively.

The term IC50 denotes the concentration at which inhibition is half-maximal. A higher IC50 goes with a need for much substance.
